# In US20200113954A1, “PHARMACEUTICAL AND FOOD COMPOSITION FOR THE TREATMENT OF VAGINAL AND INTESTINAL DYSBIOSIS” (priority 2018, published 2020):
# Tested on: vulvovaginal candidiasis
# Assay: Third pilot study: open-label, Microbio+ capsules vs topical clotrimazole in women with uncomplicated vulvovaginal candidiasis
# Type: in vivo, human
# From the text: Study of the Effect of Microbio+ CAPSULES in Woman with Uncomplicated Vulvovaginal Candidiasis.
# The primary endpoints are:
# reduction in frequency of recurrences
# re-equilibrium of the vaginal microflora (through assessment of clinical signs and Lactobacillus grade) in women with uncomplicated vulvovaginal candidiasis.
# CLOTRIMAZOLE group: single administration of topical antifungal treatment with no maintenance cycle
# Group B: Microbio+ for 15 consecutive days and maintenance cycle of 5 days a month in premenstrual phase for 3 months
# Uncomplicated Vulvovaginal candidiasis;
# Microscopic diagnosis of vulvovaginal candidiasis through wet mount or vaginal culture;
# Not menopausal (defined as 12 or more months since last menstrual cycle at appropriate age);
# The total study duration is 12 weeks.
# Diagnosis (V0) and start of treatment
# Day 15, day 30 and day 90 visits (V1, 2 and 3): At each visit, the patient was asked if they had taken the treatment regularly and if they had experienced any clinical symptoms or adverse events. A clinical examination, microscopic wet mount examination or (if available) cultural examination were performed to establish the effect of the treatment and the lactobacillus grade.
# Primary outcomes: • Evaluation of the efficacy of Microbio+ in women with acute VVC: • 1. Clinical cure rate (resolution of symptoms) of VVC at 15, 30 and 90 days; • 2. Microbiological and microscopic cure of VVC (negative vaginal culture or absence of hyphae at wet mount); • 3. Recurrence rate (defined as the presence of symptoms or positive fungal culture or presence of hyphae at wet mount) in 3-month follow-up period.
# Secondary outcomes: • Safety and tolerability of Microbio+ in adult women.
# [1] = at 15 and 30 days, 20 patients per arm
# [2] = within the 3 months of follow-up, 20 patients per arm
structure (smiles),measurement,setting,value
"Clc1ccccc1C(c1ccccc1)(c1ccccc1)n1ccnc1 [clotrimazole, Clotrimazole]",clinical and microbiological cure in 1 month,"1 month, FIG. 6 summary",80%
same,"clinical and microbiological cure, number of women",[1],16 women
same,"clinical and microbiological cure, percent of women",[1],80%
same,"symptomatic recurrences (symptom recurrence rate), percent of women",[2],40%
same,"symptomatic recurrences, number of women",[2],8 women
